From the supplement of paper PMC10307832

Columns and labels:
Assay in all cases: relative viability (nuclei count vs DMSO), 5 days (fraction); higher = more cells survive
[1] = compound: C[C@@]1(C(=O)Nc2ccc(F)nc2)CCCN1c1nc(Nc2cc(C3CC3)n[nH]2)c2cccn2n1 + Nc1ncn([C@H]2C[C@H](O)[C@@H](CO)O2)c(=O)n1 [Decitabine] (partner 2 µM)
Method in brief: (§1)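 Nuclei were stained with Hoechst during a one-step fixation (final 0.05% Triton X-100, 1% formaldehyde, 1 ug/ml Hoechst) carried out 5 days after dosing, then counted on 4× images. The cells, lung cancer lines in 1536-well plates, had been dosed by pin tool the day after seeding with one drug alone or a fixed anchor-drug dose plus five library-drug doses (not always all listed) in √10 steps. Relative viability is the nuclei count in treated wells divided by that in vehicle wells, and each value is the median of duplicate plates.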

[2] = compound: C[C@@]1(C(=O)Nc2ccc(F)nc2)CCCN1c1nc(Nc2cc(C3CC3)n[nH]2)c2cccn2n1 + CC(=O)c1c(C)c2cnc(Nc3ccc(N4CCNCC4)cn3)nc2n(C2CCCC2)c1=O [Palbociclib] (partner 0.5 µM)
Method in brief: as §1

[3] = compound: CC1(C)CNc2cc(NC(=O)c3cccnc3NCc3ccncc3)ccc21 [Motesanib] + C[C@@H](Oc1cc(-c2cnn(C3CCNCC3)c2)cnc1N)c1c(Cl)ccc(F)c1Cl [Crizotinib] (partner 1 µM)
Method in brief: as §1

[4] = compound: CC1(C)CNc2cc(NC(=O)c3cccnc3NCc3ccncc3)ccc21 [Motesanib] + C[C@]1(O)C[C@@H](c2nc(-c3ccc4ccc(-c5ccccc5)nc4c3)c3c(N)nccn32)C1 [Linsitinib] (partner 1 µM)
Method in brief: as §1

Cell Line | relative viability ([1]; first compound 0.04 µM) | relative viability ([1]; first compound 0.1265 µM) | relative viability ([1]; first compound 0.4 µM) | relative viability ([1]; first compound 1.265 µM) | relative viability ([2]; first compound 0.04 µM) | relative viability ([2]; first compound 0.1265 µM) | relative viability ([2]; first compound 0.4 µM) | relative viability ([2]; first compound 1.265 µM) | relative viability ([3]; first compound 0.01 µM) | relative viability ([3]; first compound 0.03162 µM) | relative viability ([3]; first compound 0.3162 µM) | relative viability ([3]; first compound 1 µM) | relative viability ([4]; first compound 0.01 µM) | relative viability ([4]; first compound 0.03162 µM) | relative viability ([4]; first compound 0.1 µM) | relative viability ([4]; first compound 0.3162 µM) | relative viability ([4]; first compound 1 µM) | relative viability ([3]; first compound 0.1 µM)
LC-2-ad | 0.82 | 0.73 | 0.66 | 0.606 | 0.421 | 0.396 | 0.384 | 0.347 | 0.442 | 0.46 | 0.441 | 0.484 | 0.828 | 0.834 | 0.858 | 0.881 | 0.766 | –
LCLC-97TM1 | 0.228 | 0.131 | 0.111 | 0.271 | 0.0888 | 0.108 | 0.0814 | 0.145 | 0.362 | 0.429 | 0.469 | 0.486 | 0.171 | 0.164 | 0.2 | 0.182 | 0.2 | 0.373
LCLC-103H | 0.745 | 0.661 | 0.71 | 0.712 | 0.471 | 0.452 | 0.48 | 0.465 | – | 1.13 | 1.08 | 1.15 | – | 1.1 | 1.12 | 1.09 | 1.02 | 0.986
LK-2 | – | 0.171 | 0.18 | 0.162 | 0.381 | 0.287 | – | 0.41 | 0.232 | 0.234 | 0.249 | 0.217 | 0.426 | 0.44 | 0.369 | 0.623 | 0.582 | 0.231
LOU-NH91 | 0.774 | 0.874 | 0.744 | 0.771 | 0.528 | 0.471 | 0.546 | 0.513 | 0.743 | 0.746 | 0.769 | 0.729 | 1.05 | 0.996 | 0.942 | 0.91 | 0.996 | 0.743
LU99A | 0.764 | 0.585 | 0.527 | 0.738 | 0.273 | 0.208 | 0.173 | 0.26 | 0.518 | 0.477 | 0.549 | 0.574 | 0.496 | 0.565 | 0.537 | 0.511 | 0.594 | 0.493
LXF-289 | 0.361 | 0.385 | 0.394 | 0.383 | 0.644 | 0.541 | 0.62 | 0.661 | 0.822 | 0.823 | 0.842 | 0.867 | 0.958 | 0.974 | 1.02 | 1 | 1.02 | 0.82
NCI-H23 | 0.274 | 0.253 | 0.258 | 0.271 | 0.386 | 0.267 | 0.243 | 0.305 | 0.484 | 0.373 | 0.497 | 0.612 | 0.582 | 0.609 | – | 0.56 | 0.527 | –
NCI-H322M | 0.658 | 0.533 | 0.494 | 0.547 | 0.393 | 0.362 | 0.374 | 0.45 | 1.06 | 0.835 | 0.974 | 0.946 | 1.03 | 0.91 | 0.913 | 0.92 | 0.98 | 1.04
NCI-H358 | 0.212 | 0.146 | 0.165 | 0.116 | 0.112 | 0.121 | 0.115 | 0.107 | 0.578 | 0.346 | 0.586 | 0.596 | 0.7 | 0.818 | 0.712 | 0.785 | 0.905 | 0.763
NCI-H441 | 0.24 | 0.213 | 0.23 | 0.223 | 0.132 | 0.146 | 0.116 | 0.13 | 0.596 | 0.785 | 0.846 | 0.803 | 0.519 | 0.545 | 0.626 | 0.603 | 0.875 | 1.02
NCI-H460 | 0.506 | 0.446 | 0.413 | 0.346 | 0.226 | 0.0841 | 0.058 | 0.143 | 0.935 | 0.75 | 0.927 | 0.902 | 0.836 | 0.817 | 0.726 | 0.899 | 0.744 | 0.945
NCI-H520 | 0.498 | 0.493 | 0.416 | 0.491 | 0.254 | 0.196 | 0.201 | 0.218 | 0.665 | 0.792 | 0.662 | 0.725 | 0.86 | 1.02 | 0.911 | 1.18 | 0.923 | 0.697
NCI-H647 | 0.504 | 0.312 | 0.368 | 0.421 | 0.398 | 0.413 | 0.353 | 0.367 | 1 | 1.06 | 1.19 | 0.964 | 1.17 | 1.12 | 1.38 | 1.14 | 1.14 | 1.2
NCI-H650 | 0.291 | 0.311 | 0.305 | 0.29 | 0.305 | 0.211 | 0.263 | 0.256 | 0.774 | 0.685 | 0.71 | 0.522 | 0.779 | 0.833 | 0.936 | 1.02 | 0.795 | 0.874
NCI-H661 | 0.528 | 0.514 | 0.54 | 0.547 | 0.388 | 0.427 | 0.412 | 0.386 | – | 0.945 | 0.978 | 1.1 | 0.518 | 0.528 | 0.559 | 0.593 | 0.495 | 1.09
NCI-H727 | 0.8 | 0.636 | 0.529 | 0.362 | 0.575 | 0.528 | 0.404 | 0.38 | 0.96 | 0.839 | 0.808 | 0.723 | 0.3 | 0.329 | 0.304 | 0.292 | 0.15 | 0.786
NCI-H838 | 0.461 | 0.467 | 0.395 | 0.335 | 0.241 | 0.191 | 0.185 | 0.17 | 0.908 | 0.856 | 0.899 | 0.878 | 1.05 | 1.09 | 1.06 | 1.08 | 1.07 | 0.903
